{"source": "patent US20090085008A1", "about": "“Cellulose compound composition and cellulose compound film” (FUJIFILM Corporation, priority 2005, published 2009)", "experiment": "Solubility in mixture solvent methylene chloride:methanol = 87:13", "format": "physicochemical", "conditions": "Methylene chloride:Methanol = 87:13 (mass ratio)", "experimental": "A test was conducted to evaluate the solubility of the compound represented by formula (1) or (2), which can be used in the present invention, in a halogen-containing mixture solution.", "data": [{"compound": "COc1cc(OC)c(C(=O)Oc2ccc(C(=O)Oc3ccc(-c4ccc(OC(=O)c5ccc(OC(=O)c6cc(OC)c(OC)cc6OC)cc5)cc4)cc3)cc2)cc1OC", "note": "[Analogous compound]", "values": [{"measurement": "Solubility", "value": 1, "unit": "%"}]}]}
